Assay [1] has as its target MOR. In words: Radioligand binding assay at μ opioid receptor. Particulars: for Log[IC50±] (μ): log IC50 ± error; for Ki^μ/Ki^δ: ratio of binding affinities MOR/DOR. The protocol: (§1) Binding affinities of these ligands were measured on radioligand binding assays. […] ([43]).
Assay [2] deals with DOR (Homo sapiens, UniProt P41143). In words: Radioligand binding assay at δ opioid receptor. Particulars: for Ki: Ki^δ (nM). On the procedure: as §1
For another assay, the target named is T1, hNK1 (Homo sapiens, UniProt P25103).
T1 construct: expressed in transfected cells; host or cells: CHO
In words: hNK1/CHO cell membrane radioligand binding assay ([3H]SP). Particulars: for Ki: Ki^hNK1 (nM), hNK1/CHO membranes, [3H]SP; for Ki^hNK1/Ki^rNK1: ratio human/rat NK1.

A further assay concerns the target rNK1 (Rattus norvegicus, UniProt P14600). The assay can be described thus: Radioligand binding assay at rat NK1 receptor. Particulars: Ki^rNK1 (nM). The protocol: as §1
Assay [3] relates to MOR. In words: Guinea pig isolated ileum (GPI) functional assay. Format: cell-based.
Assay [4] addresses T2, DOR (Mus musculus, UniProt P32300).
T2 construct: Male ICR mice under CO2 anesthesia were sacrificed by cervical dislocation and the vasa differentia removed; from tissue; host or cells: mouse vas deferens (ICR mice)
In words: Mouse isolated vas deferens (MVD) functional assay. Format: cell-based. Particulars: MVD (DOR) IC50 (nM), agonist activity, electrically stimulated tissue.

Another assay has as its target T3, NK1R (Cavia porcellus, UniProt P30547).
T3 construct: The longitudinal muscle with myenteric plexus (LMMP) was carefully separated from the circular muscle; from tissue; host or cells: guinea pig ileum longitudinal muscle with myenteric plexus
In words: GPI/LMMP functional assay at NK1R (agonist and antagonist testing). Format: cell-based, guinea pig. The settings on record: for Kb: GPI/LMMP (NK1R) Ke (nM) ± S.E.M., antagonist activity; for GPI/LMMP (NK1R) Agonist: agonist activity at the concentration in the cell.

The mark [5] stands for this setting: agonist activity, electrically stimulated tissue, read-out: GPI (MOR) IC50.
[6] abbreviates: head of Table IX, read-out: GPI (MOR) ID50.

The results in this text go back to US11141452B2, “Bifunctional compounds for relief of pain comprising an opioid receptor agonist moiety and a NK1 receptor antagonist moiety and methods for treating pain” (THE ARIZONA BOARD OF REGENTS ON BEHALF OF THE UNIVERSITY OF …, priority 2014, dated 2021).

Molecules are shown by their SMILES. Values joined by “and” are separate entries in the source; they are usually repeats but may differ in a detail not shown here. Identical values can stand only once. Like-named read-outs stand apart in the source and are kept apart here. Non-standard residues stand in square brackets, D forms with d. Residues, ends and D or L forms follow the SMILES beside them. *: point of attachment. NH(3,5-(CF3)2-benzyl) = FC(F)(F)c1cc(CN*)cc(C(F)(F)F)c1; NMePhe(4-F) = CN[C@@H](Cc1ccc(F)cc1)C(=O)O; Dmt = Cc1cc(O)cc(C)c1C[C@H](N)C(=O)O; NMeF = CN[C@@H](Cc1ccccc1)C(=O)O

Sequence of DOR (Homo sapiens, UniProt P41143) (P41143 whole entry): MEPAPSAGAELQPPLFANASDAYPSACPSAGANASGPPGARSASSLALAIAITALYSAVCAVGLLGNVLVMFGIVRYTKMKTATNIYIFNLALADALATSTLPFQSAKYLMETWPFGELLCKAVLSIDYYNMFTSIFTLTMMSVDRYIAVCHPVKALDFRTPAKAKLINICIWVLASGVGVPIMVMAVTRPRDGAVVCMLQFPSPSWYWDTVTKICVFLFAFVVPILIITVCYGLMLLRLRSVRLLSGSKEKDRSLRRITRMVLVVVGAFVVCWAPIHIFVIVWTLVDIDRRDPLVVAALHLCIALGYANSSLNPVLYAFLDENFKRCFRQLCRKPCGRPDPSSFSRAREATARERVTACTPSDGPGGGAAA
T1 sequence (P25103 whole entry): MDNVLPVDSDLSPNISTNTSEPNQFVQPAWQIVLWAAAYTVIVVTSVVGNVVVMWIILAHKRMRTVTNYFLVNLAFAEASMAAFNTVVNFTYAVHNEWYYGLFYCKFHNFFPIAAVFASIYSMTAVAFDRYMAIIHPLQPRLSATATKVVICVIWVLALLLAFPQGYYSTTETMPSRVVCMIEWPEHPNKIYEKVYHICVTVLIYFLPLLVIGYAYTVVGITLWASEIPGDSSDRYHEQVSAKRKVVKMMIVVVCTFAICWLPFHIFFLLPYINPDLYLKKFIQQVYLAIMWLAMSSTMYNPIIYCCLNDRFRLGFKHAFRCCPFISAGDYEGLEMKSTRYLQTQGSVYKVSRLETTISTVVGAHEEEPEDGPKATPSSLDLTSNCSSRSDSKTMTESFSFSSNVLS
T2 sequence (P32300 whole entry): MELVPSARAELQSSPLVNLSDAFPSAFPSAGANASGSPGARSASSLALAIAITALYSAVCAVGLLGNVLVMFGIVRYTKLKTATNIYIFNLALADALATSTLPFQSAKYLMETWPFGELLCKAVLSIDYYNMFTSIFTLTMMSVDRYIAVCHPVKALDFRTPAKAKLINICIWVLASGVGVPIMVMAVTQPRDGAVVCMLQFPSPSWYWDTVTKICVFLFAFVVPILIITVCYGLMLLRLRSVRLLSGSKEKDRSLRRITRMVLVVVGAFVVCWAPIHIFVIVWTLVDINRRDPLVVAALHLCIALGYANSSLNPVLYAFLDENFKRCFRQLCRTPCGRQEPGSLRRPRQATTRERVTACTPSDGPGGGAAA
Sequence of rNK1 (P14600 whole entry): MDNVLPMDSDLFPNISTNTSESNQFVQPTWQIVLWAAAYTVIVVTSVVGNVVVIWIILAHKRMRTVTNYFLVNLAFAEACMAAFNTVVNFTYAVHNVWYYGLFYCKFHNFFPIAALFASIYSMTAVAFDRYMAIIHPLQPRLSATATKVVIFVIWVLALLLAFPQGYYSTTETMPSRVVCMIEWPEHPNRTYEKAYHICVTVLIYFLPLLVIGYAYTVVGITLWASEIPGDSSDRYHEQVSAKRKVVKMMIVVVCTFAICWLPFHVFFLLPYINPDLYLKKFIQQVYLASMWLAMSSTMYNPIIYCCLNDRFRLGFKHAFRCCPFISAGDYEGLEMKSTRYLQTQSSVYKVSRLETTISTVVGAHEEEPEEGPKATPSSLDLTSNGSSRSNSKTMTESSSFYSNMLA
T3 sequence (P30547 whole entry): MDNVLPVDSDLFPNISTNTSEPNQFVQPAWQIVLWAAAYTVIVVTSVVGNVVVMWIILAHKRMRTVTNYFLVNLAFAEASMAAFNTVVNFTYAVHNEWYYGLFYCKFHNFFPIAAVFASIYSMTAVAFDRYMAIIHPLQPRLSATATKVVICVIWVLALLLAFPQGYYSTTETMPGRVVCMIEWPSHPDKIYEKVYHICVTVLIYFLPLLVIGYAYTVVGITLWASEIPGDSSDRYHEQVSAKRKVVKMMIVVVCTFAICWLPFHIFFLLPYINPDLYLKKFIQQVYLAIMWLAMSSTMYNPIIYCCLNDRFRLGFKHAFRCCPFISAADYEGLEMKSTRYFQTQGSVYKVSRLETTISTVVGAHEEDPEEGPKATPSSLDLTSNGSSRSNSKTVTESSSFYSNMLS

On to `Cc1cc(O)cc(C)c1C[C@H](N)C(=O)N[C@H](C)C(=O)NCC(=O)N(C)[C@@H](Cc1ccccc1)C(=O)N[C@@H](CO)C(=O)NCC(=O)N1CCC[C@H]1C(=O)N[C@@H](CC(C)C)C(=O)N[C@@H](Cc1c[nH]c2ccccc12)C(=O)NCc1cc(C(F)(F)F)cc(C(F)(F)F)c1` [AKG-CRA-137] (H-[Dmt][dA]G[NMeF]SGPLW-{NH(3,5-(CF3)2-benzyl)}), for which the Ki (as a rule, a measure of affinity in units of concentration, obtained from inhibition or displacement) was 0.7 nM at MOR [1]; 1 nM on DOR [2]; 4.9 nM and 4.76 nM on hNK1; 87.5 nM on rNK1. Further, the “Log[IC50±] (μ)” value at MOR [1] is on record as −8.82 ± 0.26. The IC50 is 2.69 nM at DOR [2], 7.9 nM with MOR [3] (setting [5]), 7.87 ± 2.57 nM with MOR [3] (setting [6]) and 16.4 ± 5.17 nM on DOR [4]. Moreover, the “Ki^hNK1/Ki^rNK1” value at hNK1 is recorded as 1/18. In addition, in the assay with MOR [3], the “GPI/MVD IC50 ratio” value is on record as 1/2. For the same compound, the antagonist dissociation constant (Kb) (in general, the affinity of an antagonist, worked out from how it opposes an agonist) on NK1R is 26.3 ± 5.7 nM. Besides, the “GPI/LMMP (NK1R) Agonist” value at NK1R is reported as “None at 100 nM”.
Regarding `Cc1cc(O)cc(C)c1C[C@H](N)C(=O)N[C@H](C)C(=O)NCC(=O)N(C)[C@@H](Cc1ccc(F)cc1)C(=O)N[C@@H](CO)C(=O)N1CCC[C@H]1C(=O)N[C@@H](CC(C)C)C(=O)N[C@@H](Cc1c[nH]c2ccccc12)C(=O)NCc1cc(C(F)(F)F)cc(C(F)(F)F)c1` [AKG135] (H-[Dmt][dA]G[NMePhe(4-F)]SPLW-{NH(3,5-(CF3)2-benzyl)}; N-terminus assumed), the inhibition constant Ki at MOR [1] is 0.5 nM; on DOR [2], 0.5 nM; at hNK1, 7.26 ± 0.59 nM; at rNK1 it was 51.7 ± 16.2 nM. Further, at MOR [1], the “Log[IC50±] (μ)” value is given as −8.93 ± 0.09. Further, the “Ki^μ/Ki^δ” value at MOR [1] is given as 1/1. The IC50 at DOR [2] was 1 nM; with MOR [3] (setting [5]), 23 nM; in the assay with MOR [3] (setting [6]) it was 23.4 ± 4.74 nM; at DOR [4] it was 15.4 ± 5.4 nM. For the same compound, on hNK1, the “Ki^hNK1/Ki^rNK1” value was 1/7. Further, the “GPI/MVD IC50 ratio” value with MOR [3] is on record as 2/1. At NK1R, this compound came in with an antagonist dissociation constant (Kb) of 28.7 ± 11.1 nM. Further, at NK1R, the “GPI/LMMP (NK1R) Agonist” value is given as “None at 100 nM”.
Consider `CC(C)C[C@H](NC(=O)[C@@H]1CCCN1C(=O)CNC(=O)[C@H](Cc1ccccc1)N(C)C(=O)CNC(=O)[C@@H](C)NC(=O)[C@@H](N)Cc1ccc(O)cc1)C(=O)N[C@@H](Cc1c[nH]c2ccccc12)C(=O)NCc1cc(C(F)(F)F)cc(C(F)(F)F)c1` [AKG113, H-Tyr-D-Ala-Gly-NMePhe-Gly-Pro-Leu-Trp-NH-Bn(3′,5′-(CF3)2)] (H-Y[dA]G[NMeF]GPLW-{NH(3,5-(CF3)2-benzyl)}), for which, at MOR [1], the Ki turned out to be 3 nM, the “binding selectivity for MOR over DOR” value turned out to be 15 times, the “Log[IC50±] (μ)” value is −8.23 ± 0.03 and the “Ki^μ/Ki^δ” value is reported as 1/15. Besides, on DOR [2], the IC50 was 100 nM and the inhibitory constant (Ki) worked out at 46 nM. Also, the “Ki^hNK1/Ki^rNK1” value on hNK1 is 1/4. Further, the affinity at rNK1 corresponds to a Ki of 60 nM. For the same compound, the “GPI/MVD IC50 ratio” value with MOR [3] is reported as 2/1. The IC50 in the assay with MOR [3] (setting [5]) came out at 79.2 nM. Besides, on DOR [4], the IC50 was 38.7 ± 9.69 nM. At NK1R, the Kb is 14.9 ± 2.9 nM and the “GPI/LMMP (NK1R) Agonist” value is recorded as “None at 100 nM”.
As to `Cc1cc(O)cc(C)c1C[C@H](N)C(=O)N[C@H](C)C(=O)NCC(=O)N(C)[C@@H](Cc1ccccc1)C(=O)N[C@@H](CO)C(=O)N1CCC[C@H]1C(=O)N[C@@H](CC(C)C)C(=O)N[C@@H](Cc1c[nH]c2ccccc12)C(=O)NCc1cc(C(F)(F)F)cc(C(F)(F)F)c1` [AKG132] (H-[Dmt][dA]G[NMeF]SPLW-{NH(3,5-(CF3)2-benzyl)}), the Ki at MOR [1] is 0.4 nM; on DOR [2] it was 2 nM; at hNK1, 5.6 nM and 5.61 nM; on rNK1, 36 nM. Besides, the “Log[IC50±] (μ)” value at MOR [1] is −9.03 ± 0.06. Moreover, the “Ki^μ/Ki^δ” value at MOR [1] was 1/5. Further, the IC50 at DOR [2] is 5.25 nM; with MOR [3] (setting [5]), 43 nM; with MOR [3] (setting [6]), 42.6 ± 6 nM; at DOR [4], 7.66 ± 2.03 nM. Moreover, the “Ki^hNK1/Ki^rNK1” value on hNK1 is 1/6. Further, the Kb on NK1R worked out at 19.8 ± 2.9 nM. The “GPI/LMMP (NK1R) Agonist” value at NK1R is recorded as “None at 30 nM”.
